The source of these data is patent US8153805B2, “Biaryl derivatives” (Hoffmann-La Roche Inc., priority 2007, dated 2012).

The target of the assay is T1, human CCR2B (Homo sapiens, UniProt P41597).
T1 construct: host or cells: CHO-K1 (CHOK1-CCR2B-A5)
T1 sequence (P41597 1-360 isoform P41597-2): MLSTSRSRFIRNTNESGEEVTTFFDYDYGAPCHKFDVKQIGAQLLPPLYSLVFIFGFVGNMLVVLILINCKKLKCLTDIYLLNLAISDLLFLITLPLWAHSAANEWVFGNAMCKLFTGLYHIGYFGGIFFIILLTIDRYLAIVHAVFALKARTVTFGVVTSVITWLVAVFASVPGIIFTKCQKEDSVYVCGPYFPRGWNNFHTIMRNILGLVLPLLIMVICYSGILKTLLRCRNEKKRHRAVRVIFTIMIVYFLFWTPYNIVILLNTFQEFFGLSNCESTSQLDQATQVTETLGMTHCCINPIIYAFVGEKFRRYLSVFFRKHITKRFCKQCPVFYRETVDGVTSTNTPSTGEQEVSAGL
The assay can be described thus: Calcium mobilization assay (FLIPR, MCP-1 stimulated CHOK1-CCR2B-A5 cells). The following applies: antagonist activity vs 20 nM MCP-1, CHOK1-CCR2B-A5 cells. It is filed as cell-based. On the procedure:
Calcium Mobilization Assay
CHOK1-CCR2B-A5 cells (from Euroscreen) stably overexpressing the human chemokine receptor 2 isoform B were cultured in Nutrient Hams F12 medium supplemented with 5% FBS, 100 U/ml penicillin, 100 μg/ml streptomycin, 400 μg/ml G418 and 5 μg/ml puromycin.
For the assay cells were grown overnight in 384-well black clear flat bottom polystyrene plates (Costar) at 37° C. at 5% CO2. After washing with DMEM, 20 mM Hepes, 2.5 mM probenecid, 0.1% BSA (DMEM assay buffer) cells were loaded with 4 μM Fluo-4 in the same DMEM assay buffer for 2 hours at 30° C. Excess dye was removed and cells were washed with DMEM assay buffer. 384-well compound plates were prepared with DMEM assay buffer/0.5% DMSO with or without various concentrations of test compounds. Usually compounds were tested for agonist and antagonist activity.
Test compounds were added to the assay plate and agonist activity was monitored as fluorescence for 80 seconds with a FLIPR (488 nm excitation; 510-570 nm emission; Molecular Devices). After 20-30 min. of incubation at 30° C., 20 nM MCP-1 (R&D; Roche) was added and fluorescence was monitored again for 80 seconds. Increases in intracellular calcium are reported as maximum fluorescence after agonist exposure minus basal fluorescence before exposure. Antagonist activity is indicated as inhibitor concentration required for 50% inhibition of specific calcium increases.
In general terms: Calcium flux is commonly read through the fluorescence of an indicator in the cells.

As a reminder, the IC50 is the concentration that inhibits the measured activity by half. `O=C(c1c(F)cc(-c2cccc(OC(F)(F)F)c2)cc1F)N1CCC(N2CCCC2)CC1` [Example 40, (3,5-Difluoro-3′-trifluoromethoxy-biphenyl-4-yl)-(4-pyrrolidin-1-yl-piperidin-1-yl)-methanone]: the IC50 is 220 nM.
